# Tests used:
# [1] = system: male KK-A^y mice; assay: Hypoglycemic and hypolipidemic activity in spontaneously diabetic KK-Ay mice; type: in vivo; settings: 10 mg/kg/day orally for 4 consecutive days, plasma 24 hours after final administration, non-fasting, vs control group
# Method: Blood was drawn under a non-fasting state from the tail vein of male KK-A^y mice, and the glucose and triglyceride levels of the plasma were measured using commercially available assay kits (glucose CII-test WAKO and triglyceride G-test WAKO, Wako Pure Chemical Industries, Ltd.). The mice were grouped (5 mice per group) into a control group and an administration group, such that the mean and standard deviation of the body weight and the plasma glucose and plasma triglyceride levels in each group were nearly the same. The test compounds (compounds of Examples 1, 2, 4, 8, 20, 22, 24, 27, 30, 33, 36, 37, 40, 45, 47, 52, 56, 58 and 64) were suspended in 5% gum arabic solution and administered (10 mg/kg/day) orally to the administration group for 4 consecutive days. The 5% gumarabic solution was orally administered to the control group. Blood was drawn under a non-fasting state from the tail vein 24 hours after the final administration and the glucose and triglyceride levels of the plasma were measured. The decrease in the plasma glucose and triglyceride levels was calculated from the following formula. Decrease (%)=[(mean of control group−mean of test compound administration group)/mean of control group]×100 Results
# [2] = system: male db/db mice; assay: Hypoglycemic and hypolipidemic activity in db/db mice; type: in vivo; settings: 3 mg/kg/day orally for 2 consecutive weeks, plasma 24 hours after final administration, non-fasting, vs control group
# Method: Using db/db mice genetically showing high plasma glucose, hypertriglyceridemia, insulin resistance and obesity, the pharmacological activity of the test compounds of Examples 1, 2 and 20 was examined.
# Blood was drawn under a non-fasting state from the tail vein of male db/db mice, the glucose level and triglyceride level of the plasma were measured using commercially available assay kits (glucose CII-test WAKO and triglyceride G-test WAKO, Wako Pure Chemical Industries, Ltd.). The mice were grouped (6 mice per group) into a control group and test compound (compounds of Examples 1, 2 and 20) administration group (3 mg/kg/day), such that the mean and standard deviation of the body weight and the plasma glucose and plasma triglyceride levels in each group were nearly the same. The test compound was suspended in 0.5% methylcellulose solution and administered orally for 2 consecutive weeks from the next day. The 0.5% methylcellulose solution was orally administered to the control group. Blood was drawn under a non-fasting state from the tail vein 24 hours after the final administration and the glucose and triglyceride levels of the plasma were measured. The decrease in the plasma glucose and triglyceride levels was calculated from the following formula. Decrease (%)=[(mean of control group−mean of test compound administration group)/mean of control group]×100 Results
# [3] = system: male ICR mice; assay: Toxicity by repeat administration in ICR mice; type: in vivo; settings: 30 and 100 mg/kg/day orally for 2 consecutive weeks, vs control group; for plasma volume: calculated from Evans blue concentration; for weight of the heart / weight of the liver: wet weight
# Method: Using 7-week-old male ICR mice, toxicity by repeat administration was examined.
# The mice were grouped (7 mice per group) into a control group and test compound (compounds of Examples 2 and 20) administration groups (30 and 100 mg/kg/day), such that the mean and the standard deviation of the body weight of the mice were nearly the same. The test compound was suspended in 0.5% methylcellulose solution and administered orally for 2 consecutive weeks from the next day. The 0.5% methylcellulose solution was orally administered to the control group. At 24 hours after the final administration, Evans blue (100 μg/mouse) was administered from the tail vein and, 5 min later, the blood was drawn from the orbital venous plexus with anesthesia. Using EDTA-added blood, hematocrit value and erythrocyte count were measured. Using the plasma, Evans blue concentration was measured, from which plasma volume was calculated. The liver and heart were removed and wet weight was measured.
# [4] = system: female Wistar rats; assay: Toxicity by repeat administration in Wistar rats; type: in vivo; settings: 30 and 100 mg/kg/day orally for 2 consecutive weeks, vs control group; for ALT (GPT) / AST (GOT): serum; for weight of the heart / weight of the liver / weight of the white fat around the uterus: wet weight
# Method: Using 6-week-old female Wistar rats, toxicity by repeat administration was examined.
# The rats were grouped (6 rats per group) into a control group and test compound (compounds of Examples 2 and 20) administration groups (30 and 100 mg/kg/day), such that the mean and the standard deviation of the body weight of the rats were nearly the same. The test compound was suspended in 0.5% methylcellulose solution and administered orally for 2 consecutive weeks from the next day. The 0.5% methylcellulose solution was orally administered to the control group. The rats were fasted for 16 hr from the last day of administration, anesthetized by intraperitoneal administration of pentobarbital sodium (50 mg/kg) 24 hr after the final administration and the blood was drawn. Using EDTA-added blood, hematocrit value and erythrocyte count were measured, and using serum, AST (GOT) and ALT (GPT) were measured. In addition, the white fat around the uterus, and the liver and heart were removed and the wet weights thereof were measured.
# [5] = Solubility of the compound in water (buffer pH 7.0); type: physicochemical; settings: 25 mg in 1.0 ml buffer pH 7.0, shaken at 25° C. for 1 hr, filtrate by HPLC
# Method: The pulverized test compound (compounds of Examples 2, 20, 22, 24, 27, 30, 40 or 65, 25 mg) was added to a buffer (1.0 ml, pH 7.0) and the mixture was shaken at 25° C. for 1 hr and passed through a membrane filter. The concentration of the test compound in the filtrate was measured by high performance liquid chromatography.
SMILES,Decrease (%) in glucose level [1],Decrease (%) in triglyceride level [1],Decrease (%) in glucose level [2],Decrease (%) in triglyceride level [2],plasma volume [3],body weight [3],erythrocyte count [3],hematocrit value [3],weight of the heart [3],weight of the liver [3],ALT (GPT) [4],AST (GOT) [4],erythrocyte count [4],hematocrit value [4],weight of the heart [4],weight of the liver [4],weight of the white fat around the uterus [4],Solubility [5],Solubility (mg/ml) [5]
"CCC/C=C/c1nc(CCOc2ccc3c(c2)CN(C(=O)C=CCCCC)[C@H](C(=O)[O-])C3)c(C)o1.[Na+] (stereo in doubt) [Example 1, sodium 2-(2-heptenoyl)-7-[2-(5-methyl-2-(trans-1-penten-1-yl)oxazol-4-yl)ethoxy]-1,2,3,4-tetrahydroisoquinoline-(3S)-carboxylate]",46.1%,45.3%,21.3%,62.7%,–,–,–,–,–,–,–,–,–,–,–,–,–,–,–
"CC=CC=CC(=O)N1Cc2cc(OCCc3nc(/C=C/CCC)oc3C)ccc2C[C@H]1C(=O)O (stereo in doubt) [Example 2, 2-(2,4-hexadienoyl)-7-[2-(5-methyl-2-(trans-1-penten-1-yl)oxazol-4-yl)ethoxy]-1,2,3,4-tetrahydroisoquinoline-(3S)-carboxylic acid]",40.3%,40.5%,57.2%,78.1%,no significant difference,no significant difference,no significant difference,no significant difference,no significant difference,no significant difference,no significant difference,no significant difference,no significant difference,no significant difference,no significant difference,no significant difference,no significant difference,10.0 mg/mL,–
"CC(C)(C)N.CC=CC=CC(=O)N1Cc2cc(OCCc3nc(/C=C/CC(C)C)oc3C)ccc2C[C@H]1C(=O)O (stereo in doubt) [Example 20, tert-butylamine 2-(2,4-hexadienoyl)-7-{2-[5-methyl-2-(4-methyl-trans-1-penten-1-yl)oxazol-4-yl]ethoxy}-1,2,3,4-tetrahydroisoquinoline-(3S)-carboxylate]",57.7%,65.6%,54.0%,72.0%,no significant difference,no significant difference,no significant difference,no significant difference,no significant difference,no significant difference,no significant difference,no significant difference,no significant difference,no significant difference,no significant difference,no significant difference,no significant difference,–,25 or above mg/ml

# From patent US7557123B2, “Heterocyclic compound and medicinal use thereof” (Kyoto Pharmaceutical Industries, Ltd., priority 2001, dated 2009)
